Source: US12004868B2, “Liposomal mitigation of drug-induced inhibition of the cardiac IKr channel” (Signpath Pharma, Inc., priority 2011, dated 2024)
Where a name gives a salt, the structure may show the parent alone. Read-outs that look alike come from different tables or passages of the source. Marks after values point to notes of the source that are not given here.

What was measured:
[1] = cited from earlier work; for incidence of QT prolongation: patients, Aloxi at doses above 2.25 mg, sotalol 1288 patients, vandetanib grade 3/4
hERG = hERG (Homo sapiens, UniProt Q12809); details: cited from earlier work
IKs = IKs (Homo sapiens, UniProt P51787); details: literature; cited from earlier work
[2] = cited from earlier work
[3] = cited from earlier work; remark: listed apart in the source
rabbit heart [4] = tested on: rabbit heart
in vitro rabbit heart [5] = tested on: in vitro rabbit heart
CaV = details: literature; read-out: CaV IC50 (Doherty et al); cited from earlier work
[6] = cited from earlier work; for Cmax: read-out: steady state Cmax
rabbit heart [7] = tested on: rabbit heart; remark: listed apart in the source
NaV1.5 = NaV1.5 (Homo sapiens, UniProt Q14524); details: literature; read-out: NaV1.5 IC50 (Doherty et al); cited from earlier work
[8] = crizotinib intravenously; nilotinib orally up to 600 mg/kg; cited from earlier work
in vitro rabbit heart [9] = experiment: In vitro rabbit heart QTc intervals; design: dose or concentration left out as unconfirmed; details: liposomes 9:1
in vitro rabbit hearts = experiment: Left ventricular pressure in in vitro rabbit hearts
[10] = tested on: isolated rabbit Purkinje fibers; details: 5 μM; cited from earlier work
calcium channel = details: literature; read-out: calcium channel blocking EC50; cited from earlier work
[11] = read-out: hERG IC50, literature
[12] = Chinese patients given 400 mg BID
[13] = cancer patients given 400 mg BID
[14] = crizotinib 2 mg/kg, vs baseline
[15] = crizotinib 3 mg/kg, vs baseline
[16] = cancer patients given 500 mg BID
[17] = children with cancer, 280 mg/m^2 BID

Chain of hERG (Q12809 whole entry): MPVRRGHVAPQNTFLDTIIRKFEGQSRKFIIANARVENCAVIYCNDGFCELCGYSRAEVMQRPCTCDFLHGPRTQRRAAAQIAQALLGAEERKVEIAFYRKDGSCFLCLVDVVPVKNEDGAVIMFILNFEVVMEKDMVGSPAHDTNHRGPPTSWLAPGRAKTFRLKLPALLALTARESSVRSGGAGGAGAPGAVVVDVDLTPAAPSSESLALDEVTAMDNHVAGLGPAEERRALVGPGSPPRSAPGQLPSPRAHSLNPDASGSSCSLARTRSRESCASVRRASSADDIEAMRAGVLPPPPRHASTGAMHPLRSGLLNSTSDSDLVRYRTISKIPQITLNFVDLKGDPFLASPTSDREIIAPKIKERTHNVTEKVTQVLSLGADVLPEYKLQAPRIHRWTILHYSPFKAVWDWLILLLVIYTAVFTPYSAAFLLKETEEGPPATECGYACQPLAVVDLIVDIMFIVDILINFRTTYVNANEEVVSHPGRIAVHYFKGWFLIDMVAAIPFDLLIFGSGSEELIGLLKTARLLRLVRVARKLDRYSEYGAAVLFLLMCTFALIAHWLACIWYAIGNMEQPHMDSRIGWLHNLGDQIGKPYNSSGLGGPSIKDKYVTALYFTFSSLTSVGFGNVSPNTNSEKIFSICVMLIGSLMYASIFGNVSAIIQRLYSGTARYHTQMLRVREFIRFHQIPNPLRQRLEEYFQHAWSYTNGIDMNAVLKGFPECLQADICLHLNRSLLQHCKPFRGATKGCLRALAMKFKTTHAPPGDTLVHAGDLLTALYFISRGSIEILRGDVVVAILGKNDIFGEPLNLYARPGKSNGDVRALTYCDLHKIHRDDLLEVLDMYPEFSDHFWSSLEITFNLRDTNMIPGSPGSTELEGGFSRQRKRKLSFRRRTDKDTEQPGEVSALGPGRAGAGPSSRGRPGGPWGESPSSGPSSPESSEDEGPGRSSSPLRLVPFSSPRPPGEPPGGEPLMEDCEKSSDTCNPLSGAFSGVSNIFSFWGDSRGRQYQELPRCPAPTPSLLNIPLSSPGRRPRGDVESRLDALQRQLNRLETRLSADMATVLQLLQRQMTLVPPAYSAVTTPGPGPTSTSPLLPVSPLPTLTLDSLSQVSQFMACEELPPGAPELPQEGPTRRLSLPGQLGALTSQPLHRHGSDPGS
Chain of NaV1.5 (Q14524 whole entry): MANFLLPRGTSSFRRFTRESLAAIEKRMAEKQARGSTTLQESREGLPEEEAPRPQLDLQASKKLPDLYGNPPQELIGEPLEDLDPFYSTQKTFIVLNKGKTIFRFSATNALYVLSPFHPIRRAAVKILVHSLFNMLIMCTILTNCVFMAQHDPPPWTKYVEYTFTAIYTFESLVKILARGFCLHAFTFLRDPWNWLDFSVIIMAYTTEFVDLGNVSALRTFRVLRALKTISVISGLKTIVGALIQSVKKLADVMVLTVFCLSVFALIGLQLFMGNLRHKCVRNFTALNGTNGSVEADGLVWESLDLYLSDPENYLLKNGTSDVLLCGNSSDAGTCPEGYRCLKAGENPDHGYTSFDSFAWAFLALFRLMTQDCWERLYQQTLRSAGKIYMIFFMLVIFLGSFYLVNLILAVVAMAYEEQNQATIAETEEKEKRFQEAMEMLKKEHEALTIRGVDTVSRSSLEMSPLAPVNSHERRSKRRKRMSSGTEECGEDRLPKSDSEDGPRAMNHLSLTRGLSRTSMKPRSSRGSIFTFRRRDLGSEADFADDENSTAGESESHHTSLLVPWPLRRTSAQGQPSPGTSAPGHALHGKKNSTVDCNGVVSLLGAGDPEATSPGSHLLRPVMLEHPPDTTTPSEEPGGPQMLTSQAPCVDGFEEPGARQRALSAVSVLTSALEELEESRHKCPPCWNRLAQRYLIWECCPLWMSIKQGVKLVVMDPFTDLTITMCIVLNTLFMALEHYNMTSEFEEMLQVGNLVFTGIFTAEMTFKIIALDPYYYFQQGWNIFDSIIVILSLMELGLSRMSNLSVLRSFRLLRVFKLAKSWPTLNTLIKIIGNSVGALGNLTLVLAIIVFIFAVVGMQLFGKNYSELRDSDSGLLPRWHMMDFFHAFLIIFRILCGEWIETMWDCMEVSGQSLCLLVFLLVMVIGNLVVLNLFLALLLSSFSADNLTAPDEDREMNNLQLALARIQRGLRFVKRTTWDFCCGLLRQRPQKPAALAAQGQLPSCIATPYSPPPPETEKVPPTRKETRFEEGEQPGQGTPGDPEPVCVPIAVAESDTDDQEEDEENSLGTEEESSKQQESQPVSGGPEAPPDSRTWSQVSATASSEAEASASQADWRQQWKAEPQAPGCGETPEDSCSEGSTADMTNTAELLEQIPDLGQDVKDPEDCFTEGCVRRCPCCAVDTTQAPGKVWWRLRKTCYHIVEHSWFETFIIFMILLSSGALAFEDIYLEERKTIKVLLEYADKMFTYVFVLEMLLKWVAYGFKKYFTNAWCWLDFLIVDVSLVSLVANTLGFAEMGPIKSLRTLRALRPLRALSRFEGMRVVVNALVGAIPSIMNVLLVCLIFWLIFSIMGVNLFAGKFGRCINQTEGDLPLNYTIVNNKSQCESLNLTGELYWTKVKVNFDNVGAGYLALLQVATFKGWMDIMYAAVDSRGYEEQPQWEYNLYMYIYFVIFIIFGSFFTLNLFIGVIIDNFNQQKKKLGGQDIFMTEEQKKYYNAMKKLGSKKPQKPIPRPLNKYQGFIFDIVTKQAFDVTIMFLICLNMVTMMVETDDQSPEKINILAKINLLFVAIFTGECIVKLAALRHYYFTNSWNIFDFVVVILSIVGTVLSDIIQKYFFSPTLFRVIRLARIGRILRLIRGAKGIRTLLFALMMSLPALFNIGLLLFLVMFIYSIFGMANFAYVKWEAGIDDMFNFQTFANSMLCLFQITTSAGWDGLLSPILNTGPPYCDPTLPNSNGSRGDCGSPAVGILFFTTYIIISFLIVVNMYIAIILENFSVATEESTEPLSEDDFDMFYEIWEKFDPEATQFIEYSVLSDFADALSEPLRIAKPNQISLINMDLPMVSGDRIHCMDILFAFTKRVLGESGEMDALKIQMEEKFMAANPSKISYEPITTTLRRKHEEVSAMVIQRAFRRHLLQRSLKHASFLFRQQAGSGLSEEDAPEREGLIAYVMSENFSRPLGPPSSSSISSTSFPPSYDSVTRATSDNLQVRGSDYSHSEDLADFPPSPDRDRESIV
Chain of IKs (P51787 whole entry): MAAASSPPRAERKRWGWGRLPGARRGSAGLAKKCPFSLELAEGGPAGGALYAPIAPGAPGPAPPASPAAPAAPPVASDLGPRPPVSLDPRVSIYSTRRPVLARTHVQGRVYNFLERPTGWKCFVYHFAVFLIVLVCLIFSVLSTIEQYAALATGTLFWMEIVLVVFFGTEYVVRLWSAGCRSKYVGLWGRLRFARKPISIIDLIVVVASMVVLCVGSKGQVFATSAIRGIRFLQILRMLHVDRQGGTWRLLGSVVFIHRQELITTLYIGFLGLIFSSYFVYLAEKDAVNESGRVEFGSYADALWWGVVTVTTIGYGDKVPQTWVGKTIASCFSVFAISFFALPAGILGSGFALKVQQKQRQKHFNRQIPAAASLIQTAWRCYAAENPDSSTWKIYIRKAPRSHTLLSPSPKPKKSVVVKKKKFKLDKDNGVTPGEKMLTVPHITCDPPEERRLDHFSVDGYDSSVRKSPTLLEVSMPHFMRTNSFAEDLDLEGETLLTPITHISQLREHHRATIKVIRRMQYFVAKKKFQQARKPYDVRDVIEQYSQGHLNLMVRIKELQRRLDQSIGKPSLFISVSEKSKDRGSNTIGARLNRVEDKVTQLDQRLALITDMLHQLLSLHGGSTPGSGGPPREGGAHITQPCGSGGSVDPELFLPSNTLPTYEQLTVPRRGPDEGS

O=C1c2cccc3c2[C@H](CCC3)CN1[C@@H]1CN2CCC1CC2 [Aloxi, palonasitron HCL]
incidence of EKG adverse events ([1]; doses above 2.25 mg): > 2% | incidence of bradycardia ([1]; doses above 2.25 mg): 4% | incidence of QT prolongation [1]: 5%

COc1ccc(CN(CCN(C)C)c2ccccn2)cc1 [Pyrilamine]
hERG blocker potency (in words) (hERG): low potency hERG blocker

COc1cc2c(Nc3ccc(Br)cc3F)ncnc2cc1OCC1CCN(C)CC1 [Vandetanib]
incidence of QT prolongation [1]: > 5%

COc1cccc2c1C(=O)c1c(O)c3c(c(O)c1C2=O)C[C@@](O)(C(=O)CO)C[C@@H]3O[C@H]1C[C@H](N)[C@H](O)[C@H](C)O1 [Doxorubicin]
IC50 (IKs): 4.78 µM | QTc prolongation ([2]; 30 uM): 13%

COc1c(N2C[C@@H]3CCCN[C@@H]3C2)c(F)cc2c(=O)c(C(=O)O)cn(C3CC3)c12 [Moxifloxacin]
QTc prolongation ([2]; 100 uM): 22%

CC(C)NCC(O)COc1cccc2ccccc12 (centres unmarked) [propranolol]
decrease of risk of cardiac events ([3]; LQT1): 81% | subjects still developing cardiac events on adequate treatment ([3]; LQT1): 10% | subjects still developing cardiac events ([3]; LQT2): 23% | decrease of cardiac event risk ([3]; LQT2 subjects): 59% | subjects developing cardiac events on adequate treatment ([3]; LQT3): 32%

Arsenic trioxide
hERG blocker potency (in words) (hERG; literature): ineffective hERG blocker | IC50 (hERG; [11]): > 300 µM

O=C(CCCN1CCC(O)(c2ccc(Cl)cc2)CC1)c1ccc(F)cc1 [Haloperidol]
hERG blocker potency (in words) (hERG): high potency hERG blocker

[K+] [Potassium]
reduction of the QTc interval ([3]; plasma concentration raised by 1.5 mEq/L above baseline): 24%

Cc1cn(-c2cc(NC(=O)c3ccc(C)c(Nc4nccc(-c5cccnc5)n4)c3)cc(C(F)(F)F)c2)cn1 [Nilotinib]
PR Intervals (rabbit heart [4]; nilotinib 2 mg/kg IV): 78 ms | QRS Intervals (rabbit heart [4]; nilotinib 2 mg/kg IV): 44* ms | QT Intervals (rabbit heart [4]; nilotinib 2 mg/kg IV): 182* ms | QTc Intervals (Van der Water) (rabbit heart [4]; nilotinib 2 mg/kg IV): 245* ms | PR Intervals (rabbit heart [4]; nilotinib 4 mg/kg IV): 80 ms | QRS Intervals (rabbit heart [4]; nilotinib 4 mg/kg IV): 46* ms | QT Intervals (rabbit heart [4]; nilotinib 4 mg/kg IV): 201* ms | QTc Intervals (Van der Water) (rabbit heart [4]; nilotinib 4 mg/kg IV): 262* ms | RR Intervals (rabbit heart [4]; nilotinib 4 mg/kg IV): 307 ms | QRS interval prolongation (rabbit heart [4]; nilotinib 4 mg/kg, vs baseline): 6 ms | QT interval prolongation (rabbit heart [4]; nilotinib 4 mg/kg, vs baseline): 41 ms | QTc interval prolongation (rabbit heart [4]; nilotinib 4 mg/kg, vs baseline): 36 ms | RR Intervals (rabbit heart [4]; nilotinib loading dose 2 mg/kg IV): 273 ms | effect on the QTc interval of in vitro rabbit hearts (in words) (in vitro rabbit heart [5]): dose dependent prolongation of the QTc interval | IC50 (CaV): > 3 µM | steady state Cmax [6, 12]: 2161 ng/mL | Cmax [6, 12]: 4100 nM | steady state Cmax [6, 13]: 1754 ng/mL | Cmax [6, 13]: 3300 nM

CCCCc1oc2ccc(NS(C)(=O)=O)cc2c1C(=O)c1ccc(OCCCN(CCCC)CCCC)cc1 [Dronedarone]
IC50 (hERG; [11]): 0.07 µM | IC50 (hERG; read-out: hERG IC50, wild type hERG tails at −40 mV following activation at +30 mV): 0.059 µM

CC(C)NCC(O)c1ccc(NS(C)(=O)=O)cc1 (centres unmarked) [Sotalol]
incidence of QT prolongation [1]: 2%

CCC(=O)C(CC(C)N(C)C)(c1ccccc1)c1ccccc1 (centres unmarked) [Methadone]
IC50 (hERG; [11]): 4.8 µM

C[C@@H](Oc1cc(-c2cnn(C3CCNCC3)c2)cnc1N)c1c(Cl)ccc(F)c1Cl [Crizotinib]
QRS Intervals (rabbit heart [7]; crizotinib 1 mg/kg IV): 48 ms | QT Intervals (rabbit heart [7]; crizotinib 1 mg/kg IV): 189* ms | QTc interval (Van der Water) (rabbit heart [7]; crizotinib 1 mg/kg IV): 251* ms | QRS Intervals (rabbit heart [7]; crizotinib 2 mg/kg IV): 53* ms | QT Intervals (rabbit heart [7]; crizotinib 2 mg/kg IV): 205* ms | QTc interval (Van der Water) (rabbit heart [7]; crizotinib 2 mg/kg IV): 264* ms | RR Intervals (rabbit heart [7]; crizotinib 2 mg/kg IV): 324* ms | QT interval prolongation (rabbit heart [7]; [14]): 34 ms | RR interval prolongation (rabbit heart [7]; [14]): 67 ms | QRS Intervals (rabbit heart [7]; crizotinib 3 mg/kg IV): 56* ms | QT Intervals (rabbit heart [7]; crizotinib 3 mg/kg IV): 218* ms | QTc interval (Van der Water) (rabbit heart [7]; crizotinib 3 mg/kg IV): 273* ms | RR Intervals (rabbit heart [7]; crizotinib 3 mg/kg IV): 367* ms | PR interval prolongation (rabbit heart [7]; [15]): 23 ms | QRS interval prolongation (rabbit heart [7]; [15]): 13 ms | QT interval prolongation (rabbit heart [7]; [15]): 48 ms | QTc interval prolongation (Van der Water) (rabbit heart [7]; [15]): 38 ms | RR interval prolongation (rabbit heart [7]; [15]): 110 ms | RR Intervals (rabbit heart [7]; crizotinib loading dose 1 mg/kg IV): 294* ms | IC50 (NaV1.5): 3.5 µM | IC50 (CaV): 3.1 µM | steady state Cmax [6, 16]: 650 ng/mL | Cmax [6, 16]: 1500 nM | steady state Cmax [6, 17]: 630 ng/mL | Cmax [6, 17]: 1400 nM | ECG effect in dogs (in words) [8]: increased PR-, QRS- and QT-intervals | effect on the QTc interval of in vitro rabbit hearts (in words) (in vitro rabbit heart [9]): dose dependent prolongation of the QTc interval | effect on LVP (in words) (in vitro rabbit hearts): decrease in LVP

CC(=O)Oc1ccc2c3c1O[C@H]1[C@@H](OC(C)=O)C=C[C@H]4[C@@H](C2)N(C)CC[C@@]341 [heroin]
IC50 (hERG): 427 µM

CS(=O)(=O)CCNCc1ccc(-c2ccc3ncnc(Nc4ccc(OCc5cccc(F)c5)c(Cl)c4)c3c2)o1 [Lapatinib]
action potential duration (in words) [10]: prolong action potential duration

CC(C)COCC(CN(Cc1ccccc1)c1ccccc1)N1CCCC1 (centres unmarked) [Bepridil]
EC50 (calcium channel): 10 µM
